Tests used:
[1] = parameters: method as in PMID 29627981; conditions: mice; cited from earlier work
[2] = tested on: mouse CXCL12 plasma levels; test: Mouse CXCL12 plasma determination (Bio-Plex); type: in vivo
Protocol: CXCL12 plasma levels were determined using Bio-Plex Pro Mouse Chemokine SDF-1a/CXCL12 (Bio-Rad) according to the manufacturer’s protocol. Prior to the assay mouse plasma samples were centrifuged for 15 min at 1000×g at 4 °C to remove any particulates. A four-fold dilution series of mouse CXCL12, blank samples and 1:5 diluted plasma samples were prepared. A 1:1 mixture of magnetic beads (50 µL/well) and sample (50 µL/well) was added to the 96-well assay plate, which was then sealed and incubated (30 min at RT) on a plate shaker at 850 rpm protected from light. After washing three times with wash buffer 25 µL/well detection antibody was added and the plate was again incubated as described above. The plate was again washed three times (100 µL/well wash buffer) followed by the addition of streptavidin-PE (50 µL/well). The plate was sealed and incubated (10 min at RT) at 850 rpm protected from light. Finally, the plate was again washed three times and the magnetic beads were resuspended in fresh assay buffer (152 µL/well). The plate was sealed and shaken for an additional 30 s before being analyzed with the Bioplex 200 System. Data were analyzed with the Bio-Plex Manager Software.

[3] = Compound concentration in liver and lung tissue homogenates (LC-MS/MS); type: in vivo, mouse; conditions: mean ± sem
Protocol: Pharmacokinetic analysis of plasma samples was performed at GVK BIO Sciences Pvt. Ltd. (Hyderabad, India). The pharmacokinetic properties of compound 18a were determined by subcutaneous administration in male C57BL/6 mice. A 30 mg/kg dose was formulated as a solution in 23% hydroxypropyl-beta-cyclodextrin (HPBCD; w/v) in water. The dose volume was 3 mL/kg. Serial blood samples were collected at 0.5, 1, 2, 4, 6, 8 and 24 h post dosing (n = 3). Plasma concentration of compound 18a was determined by a LC–MS/MS method. Chromatography was performed on a reverse phase column (Kinetex EVO, C18, 50 × 4.6 mm, 5 µ) at a flow rate of 1 mL/minute, using a gradient-elution method. Mobile Phase A was a 10 mM ammonium acetate solution with 0.1% formic acid in water, whereas mobile phase B was a mixture of acetonitrile and methanol (50:50). The gradient started at 5% B ramped up to 95% B over 1 min, held at 95% B for 1.2 min, and then ramped down to 5% B over 0.1 min, and held at 5% B for 1.2 min. The mass spectrometer was operated in positive-ionization mode and Telmisartan was used as internal standard. […] The Cmax, Tmax, AUC and half-life value (t1/2) were determined using standard non-compartmental pharmacokinetic methods. The concentration of compound 18a in liver and lung tissue was determined by LC–MS/MS at Eurofins (Vergeze, France). […] Data are expressed as mean ± sem.

[4] = tested on: CCl4-induced liver fibrosis in C57BL/6J mice; test: CCl4-induced liver fibrosis model; type: in vivo, mouse; conditions: 15 mg/kg/dose SC BID
Protocol: A preclinical mouse model for CCl4-induced liver fibrosis was performed at the Department of Metabolic Health Research, The Netherlands Organisation for Applied Scientific Research (TNO) (Leiden, The Netherlands). Fifty-two male C57BL/6J mice were matched on body weight prior to the study and divided into five groups (experimental study design, Supplementary Figure S1a). Starting at day 0, 10–12-week-old mice were intraperitoneally (i.p.) injected (three times a week) with mineral oil (group 1) or CCl4 (15% v/v in mineral oil, group 2–5) for a total of 28 days. At day 0, mice received subcutaneous treatment with compound 18a (15 mg/kg/dose, twice daily (BID), group 3), or corresponding vehicle control (23% HPBCD, twice daily (BID), groups 1 and 2)], or received daily gavage with either an ALK5/ALK4 kinase inhibitor [SM 16 (45 mg/kg/dose, PO, QD, group 5) or its corresponding vehicle control (β-cyclodextrin sulfobutyl ether sodium salt or captisol, PO, QD, group 4)]. Plasma samples were collected by a tail vein bleed at day 7. At day 28, mice were sacrificed using CO2 and additional plasma samples and liver lobes were collected. As a primary endpoint collagen surface area was determined on cross-sections of the lateral left lobe by picro sirius red (PSR) staining. As a secondary endpoint collagen content (hydroxyproline) of the left median lobe was analyzed using a chromogenic assay according to the manufacturer’s instructions (QuickZyme Biosciences, Leiden, The Netherlands).

[5] = tested on: bleomycin-induced lung fibrosis in C57BL/6J mice; test: Bleomycin-induced lung fibrosis model; type: in vivo, mouse; conditions: 15 mg/kg/dose SC BID, day 21, vs bleomycin + 23% HPBCD
Protocol: A preclinical mouse model for bleomycin-induced lung fibrosis was performed at the Department of Metabolic Health Research, The Netherlands Organisation for Applied Scientific Research (TNO) (Leiden, The Netherlands). Thirty-eight male C57BL/6J mice were matched on body weight prior to the study and divided into three groups (experimental study design, Supplementary Figure S1b). At day 0, 10–12-week-old mice received a single oropharyngeal administration of bleomycin (0.04U/mouse) (group 2 and 3). Control mice (group 1) received phosphate buffered saline (PBS) instead. At day 0, bleomycin-treated mice received either compound 18a (15 mg/kg/dose, subcutaneous, twice daily, group 3), or its corresponding vehicle control (23% HPBCD, subcutaneous, twice daily, group 2)]. PBS-treated mice received 23% HPBCD throughout the study (subcutaneous, twice daily, group 1). At day 21, mice were sacrificed under isoflurane anesthesia and plasma samples and lung lobes were collected. As a primary endpoint the histology lung fibrosis score (modified Ashcroft score) was used based on a Masson’s Trichrome staining on cross-sections of the left lung lobe. As a secondary endpoint collagen content (hydroxyproline) was analyzed on the medial and accessory lobes by using a chromogenic assay according to the manufacturer’s instructions (QuickZyme Biosciences, Leiden, the Netherlands).

[6] = Mouse plasma pharmacokinetics after subcutaneous administration; type: in vivo; conditions: 30 mg/kg subcutaneous
Protocol: Pharmacokinetic analysis of plasma samples was performed at GVK BIO Sciences Pvt. Ltd. (Hyderabad, India). The pharmacokinetic properties of compound 18a were determined by subcutaneous administration in male C57BL/6 mice. A 30 mg/kg dose was formulated as a solution in 23% hydroxypropyl-beta-cyclodextrin (HPBCD; w/v) in water. The dose volume was 3 mL/kg. Serial blood samples were collected at 0.5, 1, 2, 4, 6, 8 and 24 h post dosing (n = 3). Plasma concentration of compound 18a was determined by a LC–MS/MS method. Chromatography was performed on a reverse phase column (Kinetex EVO, C18, 50 × 4.6 mm, 5 µ) at a flow rate of 1 mL/minute, using a gradient-elution method. Mobile Phase A was a 10 mM ammonium acetate solution with 0.1% formic acid in water, whereas mobile phase B was a mixture of acetonitrile and methanol (50:50). The gradient started at 5% B ramped up to 95% B over 1 min, held at 95% B for 1.2 min, and then ramped down to 5% B over 0.1 min, and held at 5% B for 1.2 min. The mass spectrometer was operated in positive-ionization mode and Telmisartan was used as internal standard. Analyst software was used for the data acquisition and chromatographic-peak integration. The Cmax, Tmax, AUC and half-life value (t1/2) were determined using standard non-compartmental pharmacokinetic methods. The concentration of compound 18a in liver and lung tissue was determined by LC–MS/MS at Eurofins (Vergeze, France). Tissues harvested at the endpoint of the efficacy study (day 28 for liver, day 21 for lung), 2 h post the last compound 18a dose, were processed. Around 250 mg of the lateral right liver lobe (n = 3) and ~ 120 mg of the caudal right lung lobe (n = 4) were homogenized in water and precipitated in acetonitrile containing Irbesartan as internal standard. Further analysis was performed via a similar method as described above. Data are expressed as mean ± sem.
Pharmacokinetic parameters were calculated from plasma concentration-time data in male C57BL/6 mice (n=3). Cmax is reported as the mean ± SD.

[7] = mouse, sc, male C57BL/6 mice, plasma

CCc1ccn2ccnc2c1N1CCCN(C(CC(N)=O)C2CCN(C(=O)C3CC4CCC3O4)CC2)CC1 (stereo not drawn) [compound 18a]
oral bioavailability [1]: not orally bioavailable
increase of plasma CXCL12-levels ([2]; liver fibrosis model, day 7, 15 mg/kg/dose SC BID): ~ threefold
plasma CXCL12 levels ([2]; liver fibrosis model, day 28, 15 mg/kg/dose SC BID): led to increased CXCL12 levels
plasma CXCL12 levels ([2]; lung fibrosis model, day 21, 15 mg/kg/dose SC BID, vs vehicle (23% HPBCD)): increased mouse CXCL12 plasma levels
concentration in lung tissue ([3]; day 21, 2 h after last subcutaneous dose (15 mg/kg BID), n=4): 1703 ± 54 ng/g tissue
concentration in liver tissue ([3]; day 28, 2 h after last subcutaneous dose (15 mg/kg BID), n=3): 2528 ± 511 ng/g tissue
liver weight per body weight ([4]; CCl4-treated mice, day 28): not affected by compound 18a treatment
collagen levels by PSR staining ([4]; day 28, vs CCl4 + 23% HPBCD, P = 0.04): modestly, but significantly, reduced collagen levels
hydroxyproline levels in liver ([4]; day 28, vs CCl4 + 23% HPBCD, P = 0.06): near significant reduction of hydroxyproline levels
development of lung fibrosis (modified Ashcroft score, hydroxyproline) [5]: did not counteract the development of fibrosis
time after administration for which plasma levels exceeded the target value (5.2 ng/mL) ([6]; below target at 24 h): up to 8 h
AUC [6, 7]: 6700 ng·h/mL
Tmax [6, 7]: 0.25 h
half-life [6, 7]: 5.2 h
Cmax ([6]; mouse, sc, male C57BL/6 mice, plasma, mean ± SD, n=3): 6120 ng/mL
